Drawing on ChEMBL document CHEMBL1157274, “Two new maytansinoids from maytenus buchananii” (1999), this text covers ED50 and T/C for one compound.

SMILES strings stand for the structures.

By T/C is commonly meant the result in the treated group divided by that in the control group, in per cent.

In one test the test system is KB. Nature of the test: Cytotoxicity against human KB cells. The test is classed as functional.
A further test relates to P388. Nature of the test: In vivo antitumor activity against mouse P388 cells at 0.1 to 1.6 ug/kg. The test is classed as functional.

Turning to `COc1cc2cc(c1Cl)N1CC(=O)C(C)(O)C(=O)N(C)[C@@H](C)C(=O)O[C@@H](CC1=O)[C@@]1(C)O[C@H]1[C@H](C)[C@@H]1C[C@@](O)(NC(=O)O1)[C@H](OC)/C=C/C=C(\C)C2` (some centres not stated) [MAYTANBICYCLINOL], the ED50 in the test on KB is listed as <1 ×10⁻⁵ ug/ml. The compound also displayed a T/C in the test with P388 of 140%.
